The species entered for data set [1] is Mus musculus. Nature of the data set: Hypnotic activity was measured as dose which causes loss of righting reflex for a minimum period of 30s in 50% of mice; Range is 15-20. The data set is classed as functional.
Data set [2] is filed under the species Mus musculus. The experiment in a line: Speed of induction of analgesia in mice was determined; VS = very slow, > 15s. The data set is classed as functional, organism-based.
The species named for data set [3] is Mus musculus. Nature of the data set: Duration of analgesic action in mice was determined; L = long, >10. The data set is classed as functional, organism-based.
Data set [4] can be described thus: Acute toxicity measured as median lethal dose in mice. The data set is classed as organism-based. The following applies: mouse, in vivo.
The species entered for data set [5] is Mus musculus. Nature of the data set: Speed of induction of analgesia in mice was determined; S = slow, 10-15 s. The data set is classed as functional, organism-based.
The species entered for data set [6] is Mus musculus. The experiment in a line: Duration of analgesic action in mice was determined; B = brief, < 5 min. The data set is classed as functional, organism-based.
For data set [7], the species on record is Mus musculus. The experiment in a line: Hypnotic activity was measured as dose which causes loss of righting reflex for a minimum period of 30s in 50% of mice. The data set is classed as functional.
Data set [8] is filed under the species Mus musculus. Nature of the data set: Hypnotic activity was measured as dose which causes loss of righting reflex for a minimum period of 30s in 50% of mice; Range is 30-40. The data set is classed as functional.
Data set [9] can be described thus: Acute toxicity measured as median lethal dose in mice; Range is 100-120. The data set is classed as organism-based. The following applies: mouse, in vivo.
The species entered for data set [10] is Mus musculus. The experiment in a line: Hypnotic activity was measured as dose which causes loss of righting reflex for a minimum period of 30s in 50% of mice; Range is 20-30. The data set is classed as functional.
Data set [11] is filed under the species Mus musculus. Nature of the data set: Speed of induction of analgesia in mice was determined; I = immediate, <10 s. The data set is classed as functional, organism-based.
The nature of data set [12]: Acute toxicity measured as median lethal dose in mice; Range is 120-140. The data set is classed as organism-based. To be noted: mouse, in vivo.
A short description of data set [13]: Acute toxicity measured as median lethal dose in mice; Range is 160-180. The data set is classed as organism-based. To be noted: mouse, in vivo.
A short description of data set [14]: Acute toxicity measured as median lethal dose in mice; Range is 40-60. The data set is classed as organism-based. To be noted: mouse, in vivo.
The species entered for data set [15] is Mus musculus. The experiment in a line: Hypnotic activity was measured as dose which causes loss of righting reflex for a minimum period of 30s in 50% of mice; Range is 5-10. The data set is classed as functional.
A short description of data set [16]: Acute toxicity measured as median lethal dose in mice; Range is 80-100. The data set is classed as organism-based. To be noted: mouse, in vivo.
For data set [17], the species on record is Mus musculus. The experiment in a line: Hypnotic activity was measured as dose which causes loss of righting reflex for a minimum period of 30s in 50% of mice; Range is 20-25. The data set is classed as functional.
Data set [18] in a line: Acute toxicity measured as median lethal dose in mice; Range is 80-90. The data set is classed as organism-based. To be noted: mouse, in vivo.
Data set [19] is filed under the species Mus musculus. The experiment in a line: Hypnotic activity was measured as dose which causes loss of righting reflex for a minimum period of 30s in 50% of mice; Range is 80-100. The data set is classed as functional.
The species named for data set [20] is Mus musculus. The experiment in a line: Hypnotic activity was measured as dose which causes loss of righting reflex for a minimum period of 30s in 50% of mice; Range is 20-40. The data set is classed as functional.
Data set [21] in a line: Acute toxicity measured as median lethal dose in mice; Range is 60-80. The data set is classed as organism-based. The following applies: mouse, in vivo.
The species entered for data set [22] is Mus musculus. Nature of the data set: Hypnotic activity was measured as dose which causes loss of righting reflex for a minimum period of 30s in 50% of mice; Range is 10-15. The data set is classed as functional.

The values below come from ChEMBL document CHEMBL1121624, “Synthesis, biological evaluation, and preliminary structure-activity considerations of a series of alkylphenols as intravenous anesthetic agents” (J Med Chem, 1980).

The LD50 is the dose at which mortality reaches 50%. A low value points to greater toxicity.

In the data set listed under Mus musculus [1], `CCCCCC(C)c1cccc(C)c1O` (stereo not given) had an HD50 of 15 mg/kg. Also, the Speed of induction result in the data set filed under Mus musculus [2] is recorded as “Very slow”. Moreover, in the data set filed under Mus musculus [3], the Duration of action entry is on record as “Long”. The compound also showed an LD50 in data set [4] of 100 mg/kg.

In the data set filed under Mus musculus [1], `CCc1cccc(CC)c1O` registered an HD50 of 15 mg/kg. For the same compound, the Speed of induction entry in the data set listed under Mus musculus [5] is “Slow induction”. In the data set filed under Mus musculus [6], the Duration of action result is “Brief duration”. In data set [4], this compound gave an LD50 of 100 mg/kg.

In data set [4], `CCCCc1c(C)ccc(C(C)C)c1O` registered an LD50 of 150 mg/kg. For the same compound, in the data set listed under Mus musculus [7], the HD50 was determined as 50 mg/kg.

As for `Cc1ccc(O)c(C)c1`, the HD50 in the data set listed under Mus musculus [8] was 30 mg/kg. For the same compound, in data set [9], the LD50 was found to be 100 mg/kg.

Compound `CC(C)c1cccc(C2CC2)c1O` yielded an HD50 in the data set filed under Mus musculus [10] of 20 mg/kg. In the data set filed under Mus musculus [6], the Duration of action result is on record as “Brief duration”. The Speed of induction result in the data set listed under Mus musculus [11] was “Immediate”. In data set [12], this compound registered a 50% lethal dose (LD50) of 120 mg/kg.

In [4], `CCC(C)c1cc(C)cc(C(C)CC)c1O` (stereo not given) displayed an LD50 of 140 mg/kg. Moreover, in the data set filed under Mus musculus [7], the HD50 worked out at 30 mg/kg.

On to `CCCC(C)c1cccc(C(C)CCC)c1O` (stereo not given), for which, in the data set filed under Mus musculus [1], the HD50 is 15 mg/kg. The Speed of induction result in the data set filed under Mus musculus [2] is “Very slow”. The same compound registered an LD50 in [13] of 160 mg/kg. In the data set listed under Mus musculus [3], the Duration of action result is given as “Long”.

As to `CCCCc1cccc(C(C)C)c1O`, in the data set listed under Mus musculus [6], the Duration of action result was “Brief duration”. Also, in the data set filed under Mus musculus [11], the Speed of induction entry is reported as “Immediate”. In [4], this compound gave an LD50 of 100 mg/kg. Further, in the data set listed under Mus musculus [7], the HD50 worked out at 20 mg/kg.

Consider `CCC(C)c1ccc(O)cc1` (stereo not given), for which the LD50 in [14] came to 40 mg/kg.

For the compound `Cc1c(C(C)C)ccc(C(C)C)c1O`, the median lethal dose (LD50) in data set [4] turned out to be 100 mg/kg. In addition, the HD50 in the data set filed under Mus musculus [7] is 20 mg/kg.

`CC(C)c1cccc(C2CCCCC2)c1O`: the Speed of induction result in the data set filed under Mus musculus [5] was “Slow”. Further, the Duration of action entry in the data set listed under Mus musculus [3] is given as “Long”. The same compound returned an HD50 in the data set listed under Mus musculus [8] of 30 mg/kg. Moreover, the LD50 in data set [9] came out at 100 mg/kg.

Take `CCCC(C)C1(CC)C(=O)NC(=S)NC1=O` (stereo in doubt; form 1): the Duration of action entry in the data set filed under Mus musculus [6] is recorded as “Brief duration”. Moreover, the Speed of induction entry in the data set listed under Mus musculus [11] was “Immediate”.

In the data set listed under Mus musculus [10], `CCCC(C)c1ccccc1O` (stereo not given) yielded an HD50 of 20 mg/kg. In data set [4], this compound registered a median lethal dose (LD50) of 100 mg/kg.

As for `C=CCC1(C(C)C#CCC)C(=O)N=C([O-])N(C)C1=O.[Na+]` (stereo not given) [METHOHEXITAL SODIUM], in the data set filed under Mus musculus [15], the HD50 was determined as 5 mg/kg. For the same compound, the LD50 in data set [4] worked out at 30 mg/kg.

In turn, `CCCc1cccc(C(C)C)c1O` yielded an HD50 in the data set listed under Mus musculus [10] of 20 mg/kg. In addition, in the data set listed under Mus musculus [6], the Duration of action result was “Brief duration”. The Speed of induction result in the data set filed under Mus musculus [11] is “Immediate”. Moreover, the median lethal dose (LD50) in data set [4] was 80 mg/kg.

On to `CCc1cc(C(C)C)c(O)c(C(C)C)c1`, for which the median lethal dose (LD50) in data set [16] was 80 mg/kg. Besides, the HD50 in the data set filed under Mus musculus [7] amounted to 20 mg/kg.

As to `C=CCC1(C(C)C#CCC)C(=O)NC(=O)N(C)C1=O` (stereo not given), in the data set filed under Mus musculus [6], the Duration of action result is on record as “Brief duration”. Besides, the Speed of induction result in the data set listed under Mus musculus [11] is reported as “Immediate”.

Turning to `CCCC(C)C1(CC)C(=O)[N-]C(=S)NC1=O.[Na+]` (stereo in doubt; form 2) [THIOPENTAL SODIUM], the HD50 in the data set listed under Mus musculus [17] stood at 20 mg/kg. In data set [18], this compound showed an LD50 of 80 mg/kg.

Regarding `CC(C)(C)c1cccc(C(C)(C)C)c1O`, the LD50 in data set [4] is 120 mg/kg. The HD50 in the data set filed under Mus musculus [19] was determined as 80 mg/kg.

`Cc1ccc(C(C)C)c(O)c1` [THYMOL]: the HD50 in the data set listed under Mus musculus [7] was found to be 30 mg/kg.

In the data set listed under Mus musculus [20], `CCCc1cccc(CC)c1O` had an HD50 of 20 mg/kg. For the same compound, in the data set filed under Mus musculus [2], the Speed of induction result was “Very slow”. Further, the Duration of action entry in the data set listed under Mus musculus [6] is listed as “Brief duration”. Further, in [4], the LD50 was found to be 100 mg/kg.

Turning to `Cc1ccc(C(C)C)cc1O` [CARVACROL], in the data set listed under Mus musculus [8], the HD50 is 30 mg/kg. The LD50 in data set [16] is 80 mg/kg.

In turn, `CCc1cccc(C(C)C)c1O` had an HD50 in the data set listed under Mus musculus [1] of 15 mg/kg. Further, the Duration of action result in the data set filed under Mus musculus [6] is reported as “Brief duration”. The Speed of induction entry in the data set listed under Mus musculus [11] was “Immediate”. This compound also yielded an LD50 in data set [21] of 60 mg/kg.

Consider `CCCCC(C)c1cccc(C(C)C)c1O` (stereo not given), for which, in the data set filed under Mus musculus [5], the Speed of induction result is “Slow”. For the same compound, the Duration of action result in the data set listed under Mus musculus [3] is reported as “Long”. This compound also had an HD50 in the data set filed under Mus musculus [22] of 10 mg/kg. The LD50 in data set [9] is 100 mg/kg.

`Cc1cccc(C(C)C)c1O` came in with an HD50 in the data set filed under Mus musculus [10] of 20 mg/kg. Moreover, the Duration of action result in the data set listed under Mus musculus [6] is on record as “Brief duration”. Moreover, in the data set listed under Mus musculus [11], the Speed of induction entry is given as “Immediate”. In data set [4], this compound displayed a median lethal dose (LD50) of 80 mg/kg.
